Experimental data from ChEMBL document CHEMBL4392882, “Glycosidic Acids with Unusual Aglycone Units from Convolvulus arvensis” (J Nat Prod, 2019).
Active and inactive are the calls of the source.

Assays:
Format in all cases: functional, cell-based
A549 = assay: Cytotoxicity in human A549 cells assessed as reduction in cell viability up to 50 uM by MTT assay
Bel-7402 = assay: Cytotoxicity in human Bel7402 cells assessed as reduction in cell viability up to 50 uM by MTT assay
MCF7 [1] = assay: Inhibition of cell migration of human MCF7 cells up to 50 uM by wound healing assay
HeLa = assay: Cytotoxicity in human HeLa cells assessed as reduction in cell viability up to 50 uM by MTT assay
MCF7 [2] = assay: Cytotoxicity in human MCF7 cells assessed as reduction in cell viability up to 50 uM by MTT assay

CCCCCC[C@@H](CCCCCCCCCC(=O)O)O[C@@H]1O[C@H](C)[C@H](O)[C@H](O)[C@H]1O[C@@H]1O[C@H](CO)[C@@H](O)[C@H](O[C@@H]2O[C@H](CO)[C@@H](O[C@@H]3O[C@H](CO[C@@H]4O[C@H](C)[C@H](O)[C@H](O)[C@H]4O)[C@@H](O)[C@H](O)[C@H]3O)[C@H](O)[C@H]2O)[C@H]1O[C@@H]1O[C@@H](C)[C@H](O)[C@@H](O)[C@H]1O
inactive: Activity (A549) | Activity (Bel-7402) | inhibition (MCF7 [1]) | Activity (HeLa) | Activity (MCF7 [2])

CCCCCC[C@@H](CCCCCCCCCC(=O)O)O[C@@H]1O[C@H](C)[C@H](O)[C@H](O)[C@H]1O[C@@H]1O[C@H](CO)[C@@H](O)[C@H](O[C@@H]2O[C@H](CO[C@@H]3O[C@H](CO)[C@@H](O[C@@H]4O[C@H](CO)[C@@H](O)[C@H](O)[C@H]4O)[C@H](O)[C@H]3O)[C@@H](O)[C@H](O)[C@H]2O)[C@H]1O[C@@H]1O[C@@H](C)[C@H](O)[C@@H](O)[C@H]1O
inactive: Activity (A549) | Activity (Bel-7402) | inhibition (MCF7 [1]) | Activity (HeLa) | Activity (MCF7 [2])

CCCCC[C@@H](CCCCCCCCCC(=O)O)O[C@@H]1O[C@H](C)[C@H](O)[C@H](O)[C@H]1O[C@@H]1O[C@H](CO)[C@@H](O)[C@H](O[C@@H]2O[C@H](CO)[C@@H](O[C@@H]3O[C@H](CO[C@@H]4O[C@H](C)[C@H](O)[C@H](O)[C@H]4O)[C@@H](O)[C@H](O)[C@H]3O)[C@H](O)[C@H]2O)[C@H]1O[C@@H]1O[C@@H](C)[C@H](O)[C@@H](O)[C@H]1O
inactive: Activity (A549) | Activity (Bel-7402) | inhibition (MCF7 [1]) | Activity (HeLa) | Activity (MCF7 [2])

CCCCCC[C@@H](CCCCCCCCCC(=O)O)O[C@@H]1O[C@H](C)[C@H](O)[C@H](O)[C@H]1O[C@@H]1O[C@H](CO)[C@@H](O)[C@H](O[C@@H]2O[C@H](CO[C@@H]3O[C@H](CO)[C@@H](O[C@@H]4O[C@H](CO[C@@H]5O[C@H](C)[C@H](O)[C@H](O)[C@H]5O)[C@@H](O)[C@H](O)[C@H]4O)[C@H](O)[C@H]3O)[C@@H](O)[C@H](O)[C@H]2O)[C@H]1O[C@@H]1O[C@@H](C)[C@H](O)[C@@H](O)[C@H]1O
inactive: Activity (A549) | Activity (Bel-7402) | inhibition (MCF7 [1]) | Activity (HeLa) | Activity (MCF7 [2])

CCCCC[C@@H](CCCCCCCCCC(=O)O)O[C@@H]1O[C@H](C)[C@H](O)[C@H](O)[C@H]1O[C@@H]1O[C@H](CO)[C@@H](O)[C@H](O[C@@H]2O[C@H](CO[C@@H]3O[C@H](CO)[C@@H](O[C@@H]4O[C@H](CO[C@@H]5O[C@H](C)[C@H](O)[C@H](O)[C@H]5O)[C@@H](O)[C@H](O)[C@H]4O)[C@H](O)[C@H]3O)[C@@H](O)[C@H](O)[C@H]2O)[C@H]1O[C@@H]1O[C@@H](C)[C@H](O)[C@@H](O)[C@H]1O
inactive: Activity (A549) | Activity (Bel-7402) | inhibition (MCF7 [1]) | Activity (HeLa) | Activity (MCF7 [2])

CCCCC[C@@H](CCCCCCCCCC(=O)O)O[C@@H]1O[C@H](C)[C@H](O)[C@H](O)[C@H]1O[C@@H]1O[C@H](CO)[C@@H](O)[C@H](O[C@@H]2O[C@H](CO[C@@H]3O[C@H](CO)[C@@H](O[C@@H]4O[C@H](CO)[C@@H](O)[C@H](O)[C@H]4O)[C@H](O)[C@H]3O)[C@@H](O)[C@H](O)[C@H]2O)[C@H]1O[C@@H]1O[C@@H](C)[C@H](O)[C@@H](O)[C@H]1O
inactive: Activity (A549) | Activity (Bel-7402) | inhibition (MCF7 [1]) | Activity (HeLa) | Activity (MCF7 [2])
